Experimental data taken from US20130143929A1, “FUNGICIDAL IMIDAZOLES” (EI DU PONT DE NEMOURS AND COMPANY, priority 2010, published 2013).
Marks after values point to notes of the source that are not given here.

Experiments:
Assay type in all cases: in vivo
[1] = tested on: Septoria tritici (the causal agent of wheat leaf blotch); experiment: Test B: wheat leaf blotch, preventive spray on wheat seedlings, visual disease rating; conditions: for Test B rating (100 = 100% disease control, 0 = no disease control relative to the controls): wheat leaf blotch, preventive spray on wheat seedlings; for Test B rating (% disease control, wheat leaf blotch): 100 = 100% disease control
Source text: (§1) General protocol for preparing test suspensions for Tests A-D: the test compounds were first dissolved in acetone in an amount equal to 3% of the final volume and then suspended at the desired concentration (in ppm) in acetone and purified water (50/50 mix by volume) containing 250 ppm of the surfactant Trem® 014 (polyhydric alcohol esters). The resulting test suspensions were then used in Tests A-D. Spraying a 200 ppm test suspension to the point of run-off on the test plants was the equivalent of a rate of 800 g/ha.
(§2) The test suspension was sprayed to the point of run-off on wheat seedlings. The following day the seedlings were inoculated with a spore suspension of Septoria tritici (the causal agent of wheat leaf blotch) and incubated in a saturated atmosphere at 24° C. for 48 h, and then moved to a growth chamber at 20° C. for 19 days, after which time visual disease ratings were made.
(§3) Results for Tests A-E are given in Table A. In the Table, a rating of 100 indicates 100% disease control and a rating of 0 indicates no disease control (relative to the controls). A dash (—) indicates no test results. An asterisk “*” next to the rating value indicates a 40 ppm test suspension was used.

[2] = tested on: Puccinia recondite f. sp. tritici (the causal agent of wheat leaf rust); experiment: Test A: wheat leaf rust, preventive spray on wheat seedlings, visual disease rating; conditions: for Test A rating (100 = 100% disease control, 0 = no disease control relative to the controls): wheat leaf rust, preventive spray on wheat seedlings; for Test A rating (% disease control, wheat leaf rust): 100 = 100% disease control
Source text: as §1
as §2, with “Puccinia recondite f. sp.” for “Septoria”, “rust)” for “blotch)”, “20°” for “24°”, “24” for “48”, “7” for “19”
as §3

[3] = tested on: Blumeria graminis f. sp. tritici (also known as Erysiphe graminis f. sp. tritici, the causal agent of wheat powdery mildew); experiment: Test D: wheat powdery mildew, preventive spray on wheat seedlings, visual disease rating; conditions: for Test D rating (100 = 100% disease control, 0 = no disease control relative to the controls): wheat powdery mildew, preventive spray on wheat seedlings; for Test D rating (% disease control, wheat powdery mildew): 100 = 100% disease control
Source text: as §1
The test suspension was sprayed to the point of run-off on wheat seedlings. The following day the seedlings were inoculated with a spore dust of Blumeria graminis f. sp. tritici, (also known as Erysiphe graminis f. sp. tritici, the causal agent of wheat powdery mildew) and incubated in a growth chamber at 20° C. for 8 days, after which time visual disease ratings were made.
as §3

[4] = tested on: Botrytis cinerea (the causal agent of tomato Botrytis); experiment: Test C: tomato Botrytis, preventive spray on tomato seedlings, visual disease rating; conditions: for Test C rating (100 = 100% disease control, 0 = no disease control relative to the controls): tomato Botrytis, preventive spray on tomato seedlings; for Test C rating (% disease control, tomato Botrytis): 100 = 100% disease control
Source text: as §1
as §2, with “tomato” for “wheat”, “Botrytis cinerea” for “Septoria tritici”, “tomato Botrytis)” for “wheat leaf blotch)”, “20°” for “24°”, “24°” for “20°”, “3” for “19”
as §3

[5] = no asterisk (standard test suspension concentration, not 40 ppm)
[6] = asterisk: 40 ppm test suspension, 0 = no control
[7] = asterisk: 40 ppm test suspension
[8] = no asterisk: standard test suspension concentration, 0 = no control relative to controls

Row | Compound | Test B rating (100 = 100% disease control, 0 = no disease control relative to the controls) [1, 5] [%] | Test A rating (100 = 100% disease control, 0 = no disease control relative to the controls) [2, 5] [%] | Test D rating (100 = 100% disease control, 0 = no disease control relative to the controls) [3, 5] [%] | Test C rating (100 = 100% disease control, 0 = no disease control relative to the controls) [4, 5] [%] | Test B rating (100 = 100% disease control, 0 = no disease control relative to the controls) [1, 7] | Test A rating (100 = 100% disease control, 0 = no disease control relative to the controls) [2, 7] | Test D rating (100 = 100% disease control, 0 = no disease control relative to the controls) [3, 7] | Test C rating (100 = 100% disease control, 0 = no disease control relative to the controls) [4, 7] | further results
1 | Cc1ncc(C(O)c2c(F)cc(Cl)cc2F)n1-c1ccc(F)cc1Cl (stereo not shown) [compound 359] | 0 | 68 | 0 | 0 | – | – | – | – | –
2 | Cc1ncc(C(O)c2ccc(F)cc2Cl)n1-c1ccc(F)cc1F (stereo not shown) [compound 360] | 93 | 99 | 0 | 67 | – | – | – | – | –
3 | OC(c1ccc(F)cc1F)c1c(Cl)nc(Cl)n1-c1c(F)cc(F)cc1Cl (racemic) [compound 40] | 100 | 100 | 100 | 100 | – | – | – | – | –
4 | COc1cc(F)c(C(O)c2cnc(C)n2-c2ccc(F)cc2Cl)c(F)c1 (stereo not shown) [compound 363] | 74 | 98 | 0 | 9 | – | – | – | – | –
5 | Cc1nc(Br)c(C(O)c2ccc(F)cc2F)n1-c1c(F)cccc1Cl (stereo not shown) [compound 400] | – | – | – | – | – | – | – | – | Test B rating (% disease control, wheat leaf blotch) [1, 6]: 100* %; Test A rating (% disease control, wheat leaf rust) [2, 6]: 100* %; Test D rating (% disease control, wheat powdery mildew) [3, 6]: 100* %; Test C rating (% disease control, tomato Botrytis) [4, 6]: 100* %
6 | Cc1nc(Cl)n(-c2c(F)cc(F)cc2Br)c1C(O)c1ccc(F)cc1F (single isomer, unassigned) [compound 17] | 100 | 100 | 100 | 100 | – | – | – | – | –
7 | Cc1nc(Cl)c(C(O)c2ccc(F)cc2Cl)n1-c1c(F)cc(F)cc1Cl (stereo not shown) [compound 64] | – | – | – | – | 100* % | 100* % | 93* % | 99* % | –
8 | Cc1ncc(C(O)c2ccc(F)cc2Cl)n1-c1c(F)cc(F)cc1F (stereo not drawn) [Compound 167, α-(2-chloro-4-fluorophenyl)-2-methyl-1-(2,4,6-trifluorophenyl)-1H-imidazole-5-methanol] | 100 | 100 | 0 | 33 | – | – | – | – | –
9 | Cc1nc(Cl)n(-c2ccc(Cl)cc2Cl)c1C(O)c1c(F)ccc(Br)c1Cl (racemic) [compound 37] | 100 | 98 | 21 | 91 | – | – | – | – | –
10 | Cc1ncc(C(O)c2ccc(F)cc2)n1-c1c(F)cccc1F (stereo not shown) [compound 132] | 100 | 99 | 0 | 41 | – | – | – | – | –
11 | Cc1cc(C#N)ccc1C(O)c1c(Br)nc(C)n1-c1c(F)cccc1F (stereo not shown) [compound 165] | – | – | – | – | 100* % | 80* % | 13* % | 8* % | –
12 | Cc1nc(Cl)c(C(O)c2c(F)cc(F)cc2F)n1-c1ccc(F)cc1Br (stereo not shown) [compound 155] | 100 | 100 | 0 | 99 | – | – | – | – | –
13 | COc1ccc(C(O)c2c(Cl)nc(C)n2-c2c(F)cc(F)cc2Cl)c(Cl)c1 (stereo not shown) [compound 350] | – | – | – | – | 100* % | 100* % | 98* % | 98* % | –
14 | Cc1cc(F)ccc1C(O)c1c(Br)nc(C)n1-c1c(Cl)cccc1Cl (stereo not shown) [compound 367] | 100 | 98 | 96 | 96 | – | – | – | – | –
15 | Cc1cccc(Cl)c1-n1c(C)nc(Cl)c1C(O)c1ccc(F)cc1F (stereo not shown) [compound 320] | – | – | – | – | 100* % | 99* % | 79* % | 96* % | –
16 | OC(c1ccc(F)cc1Cl)c1c(Cl)nc(Cl)n1-c1c(F)cccc1Cl (racemic) [compound 41] | 100 | 100 | 100 | 100 | – | – | – | – | –
17 | OC(c1ccc(F)cc1F)c1c(Br)nc(Br)n1-c1c(F)cc(F)cc1Cl (stereo not shown) [compound 107] | 100 | 100 | 94 | 100 | – | – | – | – | –
18 | Cc1cc(F)ccc1C(O)c1cnc(C)n1-c1c(F)cc(Cl)cc1F (stereo not shown) [compound 109] | – | – | – | – | 94* % | 99* % | 0* % | 0* % | –
19 | Cc1ccc(C(O)c2c(Br)nc(C)n2-c2c(F)cccc2F)c(F)c1 (stereo not shown) [compound 52] | – | – | – | – | 100* % | 99* % | 35-* % | 37* % | –
20 | Cc1cc(F)ccc1C(O)c1cnc(C)n1-c1c(F)cccc1Br (stereo not shown) [compound 405] | – | – | – | – | – | – | – | – | Test B rating (% disease control, wheat leaf blotch) [1, 8]: 94%; Test A rating (% disease control, wheat leaf rust) [2, 8]: 99%; Test D rating (% disease control, wheat powdery mildew) [3, 8]: 0%; Test C rating (% disease control, tomato Botrytis) [4, 8]: 9%
21 | Cc1nc(Br)c(C(O)c2ccc(Cl)cc2Cl)n1-c1c(F)cccc1F (stereo not shown) [compound 202] | – | – | – | – | 100* % | 98* % | 82* % | 100* % | –
22 | OC(c1ccc(F)cc1F)c1c(Br)ncn1-c1c(F)cc(Cl)cc1F (stereo not shown) [compound 119] | – | – | – | – | 100* % | 98* % | 0* % | 97* % | –
